Measurements from US20030166530A1, “Conjugate heat shock protein-binding peptides” (priority 1997, published 2003).
Ends that are not written are not given here.

What was measured:
[1] = system: EG7 cells; experiment: EG7 tumor cell challenge after immunization; type: in vivo, C57BL/6 mice; settings: for tumor-free animals: eight mice per group
Experimental: C57BL/6 mice, 8-10 weeks old, were immunized intradermally with one of the following (eight mice in each group): (a)5 μl TiterMax and 5 μg OVA peptide; (b) 15 μg hsp70 and 5 μg OVA peptide; (c) 5 μl TiterMax and […] (OVA-BiP); (d) 15 μg hsp70 and 12 μg OVA-BiP; (e) control (four animals only in this group); (f) 5 μg OVA peptide; or (g) 12 μg OVA-BiP. The mice then were injected with 4×10^6 EG7 cells. Tumor size was evaluated over time by measuring two diameters, the greatest diameter and the diameter perpendicular to the greatest diameter, and then calculating the average diameter. The results are shown in FIG. 8A-G (corresponding to groups a-g, as set forth above).

[2] = target: T1, gp96 in the presence of herbimycin A (Mus musculus, UniProt P08113); experiment: Phage display affinity panning on gp96 in the presence of herbimycin A; type: binding; settings: 20 mM HEPES pH 7.5, 100 mM KCl, 25 mM CaCl2, 5 mM MgAcetate, TWEEN-20; herbimycin A present
T1 construct: mouse cDNA encoding mature gp96 (i.e., wherein the endoplasmic reticulum signal peptide has been removed); made in house; host or cells: Escherichia coli BL21 (pET 11a)
Experimental: Preparation of a gp96 expression vector. The mouse cDNA encoding mature gp96 (i.e., wherein the endoplasmic reticulum signal peptide has been removed) was incorporated into the pET 11a expression vector (Novagen) as follows. Gp96 cDNA insert was prepared by polymerase chain reaction (PCR) of a pRc/CMV clone containing the cDNA using the following oligonucleotide primers: […]
Expression of gp96. pET11 gp96 was transformed into BL21 Escherichia coli cells, and plated on LB plates containing ampicillin (50μg/ml). One of the resulting colonies was used to inoculate a 20 ml overnight culture of 2×TY medium containing ampicillin (150 μg/ml). The following day, the resulting culture was spun down and the harvested bacteria were resuspended in 1 ml of fresh medium. Two one liter cultures were then each inoculated with 0.5 ml of the harvested cells and allowed to grow at 37° C. until the optical density, measured at 600 nm, was 0.5. Then, IPTG was added to a concentration of 1 mM and the cells were cultured for another 3 hours before being harvested by centrifugation. The resulting cell pellet was resuspended in 20 ml of 50 mM HEPES pH 7.5, 50 mM KCl, 5 mM MgAcetate, 20% sucrose and 1 mM PMSF. Cell extracts were prepared by pressure shearing in a French Press. The lysates were then spun at 100,000×g for 1.5 hours and the supernatant, which constituted crude gp96 extract, was collected. […]

[3] = 17- versus 19-substituted herbimycin derivative; cited from earlier work
[4] = system: OVA-primed EL-4 target cells; experiment: 51Cr release assay with effector cells from immunized mice; type: in vivo, C57BL/6 mice; settings: mice immunized once or twice
Experimental: Preparation of hsp70 and/or peptide for use in immunization. Approximately 15 μg hsp70 and 12 μg OVA-BiP were mixed, on ice, to a final volume of 10 μL in Buffer Y (to produce a final concentration of 21.5 μM hsp70, 0.5 mM OVA-BiP, 20 mM HEPES pH 7.0, 150 mM KCl, 10 mM (NH4)2SO4, 2 mM MgCl2 and 2 mM MgADP, pH 7.0). The mixture was incubated for 30 minutes at 37° C. and was used for in vivo immunizations. Similar incubations were carried out with (i) 5 μl TiterMax adjuvant (Vaxcell, Norcross, Ga.) and 12 μg OVA-BiP (ii) 5 μl TiterMax and 5 μg OVA peptide or (iii) 12 μg OVA-BiP alone.
Preparation of cells for chromium release assay. […]
Chromium release assay. […] Supernatants were harvested and radioactivitiy released by cytotoxic activity was measured in a gamma counter. The percent specific lysis was calculated as 100×[(cpm release by CTL-cpm spontaneously released)/(cpm maximal release-cpm spontaneously released)]. Maximal release was determined by adding 1% NP-40 to lyse all cells. Spontaneous release of all target in the absence of effector cells (measured in a culture of target cells (in the absence of effector cells) maintained in parallel for the duration of the assay) was less than 20% of the maximal release.

[5] = peptide alone (without TiterMax or hsp70)

T1 sequence (P08113 22-802): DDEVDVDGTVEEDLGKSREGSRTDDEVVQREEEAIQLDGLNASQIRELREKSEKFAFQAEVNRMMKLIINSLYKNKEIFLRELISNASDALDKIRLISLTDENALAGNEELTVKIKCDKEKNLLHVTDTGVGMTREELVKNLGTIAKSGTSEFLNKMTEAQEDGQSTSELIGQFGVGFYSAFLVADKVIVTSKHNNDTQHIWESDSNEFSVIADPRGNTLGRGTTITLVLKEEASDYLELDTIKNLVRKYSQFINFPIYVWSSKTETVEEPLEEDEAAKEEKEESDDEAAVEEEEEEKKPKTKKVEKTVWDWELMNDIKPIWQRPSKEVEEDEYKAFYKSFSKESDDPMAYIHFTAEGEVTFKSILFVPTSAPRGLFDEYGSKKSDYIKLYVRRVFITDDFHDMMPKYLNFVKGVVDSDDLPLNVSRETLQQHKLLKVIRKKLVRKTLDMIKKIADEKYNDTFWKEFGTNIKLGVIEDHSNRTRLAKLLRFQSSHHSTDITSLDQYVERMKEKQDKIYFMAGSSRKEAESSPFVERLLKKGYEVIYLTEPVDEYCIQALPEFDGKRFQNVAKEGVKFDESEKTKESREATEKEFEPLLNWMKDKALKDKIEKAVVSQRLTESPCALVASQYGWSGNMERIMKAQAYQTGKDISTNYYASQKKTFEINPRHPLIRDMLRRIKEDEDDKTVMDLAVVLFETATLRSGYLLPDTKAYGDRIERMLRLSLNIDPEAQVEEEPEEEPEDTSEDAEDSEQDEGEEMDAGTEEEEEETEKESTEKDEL

Ser Ile Ile Asn Phe Glu Lys Leu (SIINFEKL; printed: Ser Ile Ile Asn Phe Glu Lys Leu) [OVA-peptide, reference compound]
tumor-free animals [1, 5]: no animals were tumor-free

Phe-His-Trp-Trp-Trp (FHWWW; printed: Phe-His-Trp-Trp-Trp) [SEQ ID NO:320]
binding of phage-expressed peptides to gp96 [2]: appeared to be favored

17-allylamino herbimycin
relative activity [3]: more active than 19-allylamino herbimycin

SIINFEKLGSGHWDFAWPW [OVA-BiP]
OVA-specific cytotoxic immune response (killing of OVA-primed EL-4 target cells) [4]: significant anti-OVA immune response
tumor diameter and detectable tumor formation ([1]; peptide administered with TiterMax adjuvant): superior to OVA peptide (FIG. 8A) in reducing tumor diameter and in preventing detectable tumor formation altogether
average tumor diameters ([1]; peptide alone (without TiterMax or hsp70), compared with OVA-peptide alone): average tumor diameters were smaller
tumor-free animals [1, 5]: 2/8
